Reference: US7560568B2, “Thiazole compounds” (SmithKline Beecham Corporation, priority 2004, dated 2009)
Like-named read-outs stand apart in the source and are kept apart here.

Legend:
[1] = test system: Normal Human foreskin fibroblasts (HFF); assay: Methylene Blue Growth Inhibition Assay, HFF; format: cell-based; conditions: 3 days, read-out: MeB Cell Line IC50
Procedure: (§1) II. Methylene Blue Growth Inhibition Assay
(§2) Normal Human foreskin fibroblasts (HFF) and human colon (HCT116, RKO), lung (H460), prostate (PC3), and breast tumor (MCF7) cell lines are cultured in high glucose DMEM (Life Technologies) containing 10% fetal bovine serum (FBS) at 37° C. in a humidified 10% CO2, 90% air incubator. Cells are harvested using trypsin/EDTA, counted using a haemocytometer, and plated in 100 μl of the appropriate media, at the following densities, in a 96-well tissue culture plate (Falcon 3075): HFF 5,000 cells/well, HCT116 3,000 cells/well, RKO 2,500 cells/well, H460 2,000 cells/well, PC3 8,000 cells/well, MCF7 4,000 cells/well. The next day, compounds are diluted in DMEM containing 100 μg/ml gentamicin, at twice the final required concentration, from 10 mM stock solutions in DMSO. 100 μl/well of these dilutions are added to the 100 μl of media currently on the cell plates. Medium containing 0.6% DMSO is added to control wells. Compounds diluted in DMEM are added to all cell lines. The final concentration of DMSO in all wells is 0.3%. Cells are incubated at 37° C., 10% CO2 for 3 days. Medium is removed by aspiration. Cell biomass is estimated by staining cells with 80 μl per well methylene blue (Sigma M9140, 0.5% in 50:50 ethanol:water), and incubation at room temperature for at least 30 minutes. Stain is removed, and the plates rinsed by immersion in water, and air-dried. To release stain from the cells 100 μl of solubilization solution is added (1% N-lauroyl sarcosine, Sodium salt, Sigma L5125, in PBS), and plates are left at room temperature for about 30 minutes. Optical density at 620 nm is measured on a microplate reader. Percent inhibition of cell growth is calculated relative to vehicle treated control wells. Concentration of compound that inhibits 50% of cell growth (IC50) is interpolated using nonlinear regression (Levenberg-Marquardt) and the equation, y=Vmax*(1−(x/(K+x)))+Y2, where Y2=0 and “K” is equal to the IC50.
(§3) In Table 1, +=10−>30 μM; ++=1-10 μM: +++=<1 μM.

[2] = test system: HCT116 colon tumor cell line; assay: Methylene Blue Growth Inhibition Assay, HCT116; format: cell-based, human; conditions: HCT116, 3 days, read-out: MeB Cell Line IC50
Procedure: as §1, §2, §3

[3] = test system: PC3 prostate tumor cell line; assay: Methylene Blue Growth Inhibition Assay, PC3; format: cell-based, human; conditions: PC3, 3 days, read-out: MeB Cell Line IC50
Procedure: as §1, §2, §3

[4] = test system: MCF7 breast tumor cell line; assay: Methylene Blue Growth Inhibition Assay, MCF7; format: cell-based, human; conditions: MCF7, 3 days, read-out: MeB Cell Line IC50
Procedure: as §1, §2, §3

PLK1 kinase domain = molecular target: T1, PLK1 kinase domain (Homo sapiens, UniProt P53350); assay: Assay for Inhibition of PLK1 (SPA, 33P-ATP, His-tagged PLK kinase domain); format: biochemical; conditions: 2 nM PLK1 kinase domain, 1 μM ATP, 1.25 hrs at 22° C.; for IC50: read-out: Average pIC50 PLK Enzyme Inhibition (converted)
T1 construct: made in house; host or cells: baculovirus infected T. ni cells
T1 sequence (P53350 21-346): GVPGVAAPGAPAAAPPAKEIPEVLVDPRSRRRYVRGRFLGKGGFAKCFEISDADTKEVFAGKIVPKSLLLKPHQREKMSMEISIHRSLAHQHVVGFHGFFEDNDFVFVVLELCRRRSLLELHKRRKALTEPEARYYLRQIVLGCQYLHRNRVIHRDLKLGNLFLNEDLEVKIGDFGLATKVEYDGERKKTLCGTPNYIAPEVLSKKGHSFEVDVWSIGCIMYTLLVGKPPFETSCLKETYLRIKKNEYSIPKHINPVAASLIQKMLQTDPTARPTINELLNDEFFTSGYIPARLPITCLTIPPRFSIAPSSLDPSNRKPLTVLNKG
Procedure: I. Assay for Inhibition of PLK1
A. Preparation of 6× N-terminal His-tagged PLK kinase domain 6× N-terminal His-tagged PLK kinase domain (amino acids 21-346 preceded by MKKGHHHHHHD (SEQ ID:NO. 1) may be prepared from baculovirus infected T. ni cells under polyhedrin promoter control. All subsequent procedures are performed at 4° C. Cells are lysed in 25 mM HEPES, 200 mM NaCl, 25 mM imidazole; pH 8.0. The homogenate is centrifuged at 14K rpm in a SLA-1500 rotor for 40 min and the supernatant filtered through a 1.2 micron filter. The supernatant is loaded onto a Nickel chelating Sepharose (Amersham Pharmacia) column and washed with 25 mM HEPES, 500 mM NaCl, 25 mM imidazole; pH 8.0. The column is then washed with a 16.6% B step where buffer B is 25 mM HEPES, 500 mM NaCl, 300 mM imidazole; pH 8.0. Protein is eluted using a 10-column volume linear gradient from 16.6% B to 100% B. Fractions were pooled using absorbance at 280 nm. PLK is concentrated using a 10 kDa molecular weight cutoff membrane and then loaded onto a Superdex 75 gel filtration (Amersham Pharmacia) column equilibrated in 25 mM HEPES, 1 mM DTT, 500 mM NaCl; pH 8.0. Protein was pooled by absorbance at 280 nm and then quality controlled using mass spectrometry and SDS-PAGE. PLK was aliquoted and stored at −80° C.
B. Enzyme activity +/− inhibitors was determined as follows: Compounds are added to the plate (1 μl in 100% DMSO). DMSO (5% final) and EDTA (62.5 mM final in 20 μL reaction) are used as controls. Reaction Mix is prepared as follows at 22° C.: • 25 mM HEPES, pH 7.2 • 15 mM MgCl2 • 1 μM ATP • 0.05 μCi/well ^33P-γ ATP (10 Ci/mMol) • 1 μM substrate peptide (Biotin-Ahx-SFNDTLDFD) SEQ ID:No. 2. • 0.15 mg/ml BSA • 1 mM DTT • 2 nM PLK1 kinase domain (added last)
Reaction Mix (20 μl) is added per well to each well immediately upon addition of enzyme and incubated 1.25 hrs. at 22° C. The enzymatic reactions are stopped with 50 μl of SPA bead/EDTA mix (50 mM EDTA, 4.0 mg/ml Streptavidin-coated SPA beads in Standard Dulbecco's PBS (without Mg^2+ and Ca^2+), 50 μM ATP). Plates are sealed with clear plastic seals, spun at 500×g for 1 min. or settled overnight, and plates counted in Packard TopCount for 30 seconds/well.
In Table 1, +=pIC50<5; ++=pIC50 5-7; +++=pIC50>7.

[5] = test system: H460 lung tumor cell line; assay: Methylene Blue Growth Inhibition Assay, H460; format: cell-based, human; conditions: H460, 3 days, read-out: MeB Cell Line IC50
Procedure: as §1, §2, §3

[6] = test system: RKO colon tumor cell line; assay: Methylene Blue Growth Inhibition Assay, RKO; format: cell-based, human; conditions: 3 days, read-out: MeB Cell Line IC50
Procedure: as §1, §2, §3

Compound | IC50 ([2]; Homo sapiens, HCT-116, 72 h) | IC50 ([3]; Homo sapiens, 72 h) | IC50 ([4]; Homo sapiens, 72 h) | IC50 (PLK1 kinase domain) | IC50 ([5]; Homo sapiens, NCI-H460, 72 h) | IC50 ([6]; Homo sapiens, 72 h) | IC50 [2] | IC50 [3] | IC50 [4] | Average pIC50 PLK Enzyme Inhibition (PLK1 kinase domain) | IC50 [5] | IC50 [6] | IC50 ([1]; Homo sapiens, 72 h) | IC50 [1]
COc1cc2ncn(-c3nc(OCc4ccccc4C(F)(F)F)c(C(N)=O)s3)c2cc1OC [Example 6, 2-[5,6-Bis(methyloxy)-1H-benzimidazol-1-yl]-4-({[2-(trifluoromethyl)phenyl]-methyl}oxy)-1,3-thiazole-5-carboxamide] | 1 to 10 µM | 1 to 10 µM | 1 to 10 µM | < 0.1 µM | 1 to 10 µM | 1 to 10 µM |  |  |  |  |  |  | > 10 µM | 
NC(=O)c1sc(-n2cnc3cc(Cl)ccc32)nc1OCc1ccccc1C(F)(F)F [Example 2B, 2-(5-chloro-1H-benzimidazol-1-yl)-4-({[2-(trifluoromethyl)phenyl]methyl}oxy)-1,3-thiazole-5-carboxamide] | > 10 µM | > 10 µM | > 10 µM | 0.1 to 10 µM | > 10 µM | > 10 µM |  |  |  |  |  |  | > 10 µM | 
Cc1cc2ncn(-c3nc(OCc4ccccc4C(F)(F)F)c(C(N)=O)s3)c2cc1C [Example 5, 2-(5,6-Dimethyl-1H-benzimidazol-1-yl)-4-({[2-(trifluoromethyl)phenyl]methyl}oxy)-1,3-thiazole-5-carboxamide] | > 10 µM | > 10 µM | > 10 µM | 0.1 to 10 µM | > 10 µM | > 10 µM |  |  |  |  |  |  | > 10 µM | 
NC(=O)c1sc(-n2cnc3ccc(Cl)cc32)nc1OCc1ccccc1C(F)(F)F [Example 2A, 2-(6-Chloro-1H-benzimidazol-1-yl)-4-({[2-(trifluoromethyl)phenyl]methyl}oxy)-1,3-thiazole-5-carboxamide] | > 10 µM | > 10 µM | 1 to 10 µM | < 0.1 µM | > 10 µM | 1 to 10 µM |  |  |  |  |  |  | > 10 µM | 

The next lines start with results.

IC50 ([2]; Homo sapiens, HCT-116, 72 h) | IC50 ([3]; Homo sapiens, 72 h) | IC50 ([4]; Homo sapiens, 72 h) | IC50 (PLK1 kinase domain) | IC50 ([5]; Homo sapiens, NCI-H460, 72 h) | IC50 ([6]; Homo sapiens, 72 h) | IC50 [2] | IC50 [3] | IC50 [4] | Average pIC50 PLK Enzyme Inhibition (PLK1 kinase domain) | IC50 [5] | IC50 [6] | Compound | IC50 ([1]; Homo sapiens, 72 h) | IC50 [1]
> 10 µM | > 10 µM | > 10 µM | 0.1 to 10 µM | > 10 µM | > 10 µM |  |  |  |  |  |  | NC(=O)c1sc(-n2cnc3ccc(F)cc32)nc1OCc1ccccc1C(F)(F)F [Example 4, 2-(6-Fluoro-1H-benzimidazol-1-yl)-4-({[2-(trifluoromethyl)phenyl]methyl}oxy)-1,3-thiazole-5-carboxamide] | > 10 µM | 
 |  |  |  |  |  | > 10 µM | > 10 µM | > 10 µM | +++ (+++=pIC50>7) | > 10 µM | > 10 µM | 2-(6-Methoxy-1H-benzimidazol-1-yl)-4-({[2-(trifluoromethyl)phenyl]methyl}oxy)-1,3-thiazole-5-carboxamide and 2-(5-methoxy-1H-benzimidazol-1-yl)-4-({[2-(trifluoromethyl)phenyl]methyl}oxy)-1,3-thiazole-5-carboxamide [Example 3] |  | > 10 µM
> 10 µM | > 10 µM | > 10 µM | < 0.1 µM | > 10 µM | > 10 µM |  |  |  |  |  |  | NC(=O)c1sc(-n2cnc3ccccc32)nc1OCc1ccccc1C(F)(F)F [Example 1, 2-(1H-Benzimidazol-1-yl)-4-({[2-(trifluoromethyl)phenyl]methyl}-oxy)-1,3-thiazole-5-carboxamide] | > 10 µM | 
